Key:
[1] = system: surinam grass; experiment: Test B pre/postemergence surinam grass; assay type: in vivo, Brachiaria decumbens; conditions: for B. signalgrass plant response rating: scale of 0 to 10 where 0 is no effect and 10 is complete control
Procedure, shortened: (§1)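 Herbicidal effect was estimated by eye on a ten-point control scale after plants spent twelve to sixteen days in a greenhouse following soil or foliar treatment. Foliar sprays targeted plants at one to four leaves; all doses were formulated in a non-phytotoxic solvent with surfactant.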

[2] = system: cocklebur; experiment: Test B pre/postemergence cocklebur; assay type: in vivo, Xanthium strumarium; conditions: for Cocklebur plant response rating: scale of 0 to 10 where 0 is no effect and 10 is complete control
Procedure, shortened: as §1

[3] = system: corn; experiment: Test B pre/postemergence corn; assay type: in vivo, Zea mays; conditions: for Corn plant response rating: scale of 0 to 10 where 0 is no effect and 10 is complete control
Procedure, shortened: as §1

[4] = system: crabgrass; experiment: Test B pre/postemergence crabgrass; assay type: in vivo, Digitaria sanguinalis; conditions: for Crabgrass plant response rating: scale of 0 to 10 where 0 is no effect and 10 is complete control
Procedure, shortened: as §1

[5] = system: giant foxtail; experiment: Test B pre/postemergence giant foxtail; assay type: in vivo, Setaria faberii; conditions: for Giant foxtail plant response rating: scale of 0 to 10 where 0 is no effect and 10 is complete control
Procedure, shortened: as §1

[6] = system: morningglory; experiment: Test B pre/postemergence morningglory; assay type: in vivo, Ipomoea hederacea; conditions: for Morningglory plant response rating: scale of 0 to 10 where 0 is no effect and 10 is complete control
Procedure, shortened: as §1

[7] = system: pigweed; experiment: Test B pre/postemergence pigweed; assay type: in vivo, Amaranthus retroflexus; conditions: for Redroot pigweed plant response rating: scale of 0 to 10 where 0 is no effect and 10 is complete control
Procedure, shortened: as §1

[8] = system: rape; experiment: Test B pre/postemergence rape; assay type: in vivo, Brassica napus; conditions: for Rape plant response rating: scale of 0 to 10 where 0 is no effect and 10 is complete control
Procedure, shortened: as §1

[9] = system: sugar beet; experiment: Test B pre/postemergence sugar beet; assay type: in vivo, Beta vulgaris; conditions: for Sugarbeets plant response rating: scale of 0 to 10 where 0 is no effect and 10 is complete control
Procedure, shortened: as §1

[10] = system: wheat; experiment: Test B pre/postemergence wheat; assay type: in vivo, Triticum aestivum; conditions: for Wheat plant response rating: scale of 0 to 10 where 0 is no effect and 10 is complete control
Procedure, shortened: as §1

[11] = system: wild oat; experiment: Test B pre/postemergence wild oat; assay type: in vivo, Avena fatua; conditions: for Wild oats plant response rating: scale of 0 to 10 where 0 is no effect and 10 is complete control
Procedure, shortened: as §1

[12] = system: purple nutsedge; experiment: Test B pre/postemergence purple nutsedge; assay type: in vivo, Cyperus rotundus; conditions: for Nutsedge plant response rating: scale of 0 to 10 where 0 is no effect and 10 is complete control
Procedure, shortened: as §1

[13] = system: rice; experiment: Test B flood test rice; assay type: in vivo, Oryza sativa
Procedure, shortened: (§2)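 Each value is a visual injury score relative to controls, with 10 meaning complete control and 0 no effect. Evaluation took place twelve to sixteen days after the 2-leaf-stage plants were treated and kept in the greenhouse.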

[14] = system: smallflower flatsedge; experiment: Test B flood test smallflower flatsedge; assay type: in vivo, Cyperus difformis
Procedure, shortened: as §2

[15] = system: duck salad; experiment: Test B flood test duck salad; assay type: in vivo, Heteranthera limosa
Procedure, shortened: as §2

[16] = system: bamyardgrass; experiment: Test B flood test barnyardgrass; assay type: in vivo, Echinochloa crus-galli
Procedure, shortened: as §2

[17] = Postemergence, Rate 125 g/ha, scale 0 to 10, 0 is no effect, 10 is complete control
[18] = Postemergence, Rate 250 g/ha, scale 0 to 10, 0 is no effect, 10 is complete control
[19] = Preemergence, Rate 62 g/ha, scale 0 to 10 (0 no effect, 10 complete control)
[20] = Rate 500 g/ha, Postemergence, scale 0 to 10, 0 no effect, 10 complete control
[21] = Rate 62 g/ha, flood test species, Pre-emergence, visual evaluation after twelve to sixteen days
[22] = Rate 125 g/ha, under heading Pre-emergence, flood test species, visual evaluation after twelve to sixteen days
[23] = Rate 250 g/ha, Pre-emergence, flood-test species, scale 0 to 10, 0 is no effect, 10 is complete control
[24] = Rate 500 g/ha, Pre-emergence, flood test species, scale 0 to 10 (0 no effect, 10 complete control)

CC(C)N(C(=O)n1oc(=O)n(CCl)c1=O)c1ccc(F)cc1 [Compound 376]
0: Plant response rating, B. signalgrass [1, 17] | Plant response rating, B. signalgrass [1, 18] | Plant response rating, B. signalgrass [1, 19] | B. signalgrass plant response rating (0 to 10 scale, 0 is no effect, 10 is complete control) ([1]; Preemergence, Rate 125 g/ha) | B. signalgrass plant response rating ([1]; Preemergence, Rate 250 g/ha) | B. signalgrass plant response rating ([1]; Preemergence, Rate 500 g/ha) | B. signalgrass plant response rating ([1]; Rate 62 g/ha, Postemergence) | Plant response rating, B. signalgrass [1, 20] | Plant response rating, Cocklebur [2, 17] | Plant response rating, Cocklebur [2, 18] | Plant response rating, Cocklebur [2, 19] | Cocklebur plant response rating (0 to 10 scale) ([2]; Preemergence, Rate 125 g/ha) | Cocklebur plant response rating ([2]; Preemergence, Rate 250 g/ha) | Cocklebur plant response rating ([2]; Preemergence, Rate 500 g/ha) | Cocklebur plant response rating ([2]; Rate 62 g/ha, Postemergence) | Plant response rating, Cocklebur [2, 20] | Plant response rating, Corn [3, 17] | Plant response rating, Corn [3, 18] | Plant response rating, Corn [3, 19] | Corn plant response rating (0 to 10 scale) ([3]; Preemergence, Rate 125 g/ha) | Corn plant response rating ([3]; Preemergence, Rate 250 g/ha) | Corn plant response rating ([3]; Preemergence, Rate 500 g/ha) | Corn plant response rating ([3]; Rate 62 g/ha, Postemergence) | Plant response rating, Corn [3, 20] | Plant response rating, Crabgrass [4, 17] | Plant response rating, Crabgrass [4, 18] | Plant response rating, Crabgrass [4, 19] | Crabgrass plant response rating (0 to 10 scale) ([4]; Preemergence, Rate 125 g/ha) | Crabgrass plant response rating ([4]; Preemergence, Rate 250 g/ha) | Crabgrass plant response rating ([4]; Preemergence, Rate 500 g/ha) | Crabgrass plant response rating ([4]; Rate 62 g/ha, Postemergence) | Plant response rating, Crabgrass [4, 20] | Plant response rating, Giant foxtail [5, 17] | Plant response rating, Giant foxtail [5, 18] | Plant response rating, Giant foxtail [5, 19] | Giant foxtail plant response rating (0 to 10 scale) ([5]; Preemergence, Rate 125 g/ha) | Giant foxtail plant response rating ([5]; Preemergence, Rate 250 g/ha) | Giant foxtail plant response rating ([5]; Preemergence, Rate 500 g/ha) | Giant foxtail plant response rating ([5]; Rate 62 g/ha, Postemergence) | Plant response rating, Giant foxtail [5, 20] | Plant response rating, Morningglory [6, 17] | Plant response rating, Morningglory [6, 18] | Plant response rating, Morningglory [6, 19] | Morningglory plant response rating (0 to 10 scale) ([6]; Preemergence, Rate 125 g/ha) | Morningglory plant response rating ([6]; Preemergence, Rate 250 g/ha) | Morningglory plant response rating ([6]; Preemergence, Rate 500 g/ha) | Morningglory plant response rating ([6]; Rate 62 g/ha, Postemergence) | Plant response rating, Morningglory [6, 20] | Plant response rating, Redroot pigweed [7, 17] | Plant response rating, Redroot pigweed [7, 18] | Plant response rating, Redroot pigweed [7, 19] | Redroot pigweed plant response rating (0 to 10 scale) ([7]; Preemergence, Rate 125 g/ha) | Redroot pigweed plant response rating ([7]; Preemergence, Rate 250 g/ha) | Redroot pigweed plant response rating ([7]; Preemergence, Rate 500 g/ha) | Redroot pigweed plant response rating ([7]; Rate 62 g/ha, Postemergence) | Plant response rating, Redroot pigweed [7, 20] | Plant response rating, Rape [8, 17] | Plant response rating, Rape [8, 18] | Plant response rating, Rape [8, 19] | Rape plant response rating (0 to 10 scale) ([8]; Preemergence, Rate 125 g/ha) | Rape plant response rating ([8]; Preemergence, Rate 250 g/ha) | Rape plant response rating ([8]; Preemergence, Rate 500 g/ha) | Rape plant response rating ([8]; Rate 62 g/ha, Postemergence) | Plant response rating, Rape [8, 20] | Plant response rating, Sugarbeets [9, 17] | Plant response rating, Sugarbeets [9, 18] | Plant response rating, Sugarbeets [9, 19] | Sugarbeets plant response rating (0 to 10 scale) ([9]; Preemergence, Rate 125 g/ha) | Sugarbeets plant response rating ([9]; Preemergence, Rate 250 g/ha) | Sugarbeets plant response rating ([9]; Preemergence, Rate 500 g/ha) | Sugarbeets plant response rating ([9]; Rate 62 g/ha, Postemergence) | Plant response rating, Sugarbeets [9, 20] | Plant response rating, Wheat [10, 17] | Plant response rating, Wheat [10, 18] | Plant response rating, Wheat [10, 19] | Wheat plant response rating (0 to 10 scale) ([10]; Preemergence, Rate 125 g/ha) | Wheat plant response rating ([10]; Preemergence, Rate 250 g/ha) | Wheat plant response rating ([10]; Preemergence, Rate 500 g/ha) | Wheat plant response rating ([10]; Rate 62 g/ha, Postemergence) | Plant response rating, Wheat [10, 20] | Plant response rating, Wild oats [11, 17] | Plant response rating, Wild oats [11, 18] | Plant response rating, Wild oats [11, 19] | Wild oats plant response rating (0 to 10 scale) ([11]; Preemergence, Rate 125 g/ha) | Wild oats plant response rating ([11]; Preemergence, Rate 250 g/ha) | Wild oats plant response rating ([11]; Preemergence, Rate 500 g/ha) | Wild oats plant response rating ([11]; Rate 62 g/ha, Postemergence) | Plant response rating, Wild oats [11, 20] | Plant response rating, Nutsedge [12, 17] | Plant response rating, Nutsedge [12, 18] | Plant response rating, Nutsedge [12, 19] | Nutsedge plant response rating (0 to 10 scale) ([12]; Preemergence, Rate 125 g/ha) | Nutsedge plant response rating ([12]; Preemergence, Rate 250 g/ha) | Nutsedge plant response rating ([12]; Preemergence, Rate 500 g/ha) | Nutsedge plant response rating ([12]; Rate 62 g/ha, Postemergence) | Plant response rating, Nutsedge [12, 20] | Plant response rating, Rice (0 to 10 scale, 0 is no effect, 10 is complete control) [13, 21] | Rice plant response rating (0 to 10 scale, 0 is no effect, 10 is complete control) [13, 22] | Rice plant response rating [13, 23] | Rice plant response rating [13, 24] | Plant response rating, S. Flatsedge (0 to 10 scale, 0 is no effect, 10 is complete control) [14, 21] | S. Flatsedge plant response rating (0 to 10 scale, 0 is no effect, 10 is complete control) [14, 22] | S. Flatsedge plant response rating [14, 23] | S. Flatsedge plant response rating [14, 24] | Plant response rating, Ducksalad (0 to 10 scale, 0 is no effect, 10 is complete control) [15, 21] | Ducksalad plant response rating (0 to 10 scale, 0 is no effect, 10 is complete control) [15, 22] | Ducksalad plant response rating [15, 23] | Ducksalad plant response rating [15, 24] | Plant response rating, Barnyardgrass (0 to 10 scale, 0 is no effect, 10 is complete control) [16, 21] | Barnyardgrass plant response rating (0 to 10 scale, 0 is no effect, 10 is complete control) [16, 22] | Barnyardgrass plant response rating [16, 23] | Barnyardgrass plant response rating [16, 24]
